In US20240148682A1, “METHOD FOR REGULATING DOWNSTREAM SIGNALING PATHWAY MEDIATED BY ACTIVATION OF TRIMETHYLAMINE-N-OXIDE” (China Medical University, priority 2022, published 2024):

Assays:
[1] = test system: miR-221; experiment: Quantitative PCR of miR-221 expression in hEPCs; assay type: cell-based, human; conditions: for inhibiting the expression of miR-221: trimethylamine-N-oxide 300 μM, 125 μM DHA (embodiment 3) or EPA (embodiment 6), 24 hours, compared with comparison group 1
Protocol: To analyze the effects of the omega-3 polyunsaturated fatty in inhibiting the inflammatory responses induced by the activation of the trimethylamine-N-oxide, human endothelial progenitor cells are cultured in the MCDB-131 medium supplemented with the 10% fetal bovine serum and the EGM™-2 growth kit and are administered separately with reagent formulations of the control group 1, the comparison group 1, and the embodiments 1 to 6 shown in Table 1. After the culture time of 24 hours has elapsed, the expressions of cytokines related to the inflammatory responses in the human endothelial progenitor cells are analyzed by enzyme-linked immunosorbent assay (ELISA) and quantitative PCR (qPCR) so as to evaluate the effects of the omega-3 polyunsaturated fatty acids in inhibiting the inflammatory responses mediated by the activation of the trimethylamine-N-oxide. Each experiment is repeated 3 times.
In detail, according to the previous studies, miRNA-221 (“miR-221” hereafter) plays an essential role in the physiological metabolism of the human endothelial progenitor cells. […] Therefore, the present disclosure uses the quantitative PCR and the enzyme-linked immunosorbent assay to analyze the expressions of miR-221 and IL-6 in the human endothelial progenitor cells of the control group 1, the comparison group 1, and the embodiments 1 to 6 after cell culture for 24 hours so as to evaluate the effects of the omega-3 polyunsaturated fatty acids in inhibiting the inflammatory responses induced by the activation of the trimethylamine-N-oxide.
Furthermore, the operation details of the quantitative PCR and the enzyme-linked immunosorbent assay are well-known in the art and can be adjusted according to the experimental requirements, so the detailed steps thereof will not be described herein again.

[2] = test system: human endothelial progenitor cells; experiment: Neovasculogenesis index of hEPCs on Matrigel (Calcein-AM); assay type: cell-based; conditions: SCF 20 ng/mL, trimethylamine-N-oxide 300 μM (comparison group 3) vs SCF alone (comparison group 2), p<0.05
Protocol: (§1) To analyze the effects of the omega-3 polyunsaturated fatty acids in alleviating the impairment of neovascularization induced by the activation of the trimethylamine-N-oxide, human endothelial progenitor cells are cultured in the MCDB-131 medium containing the EGM™-2 growth kit and the 10% fetal bovine serum in a Matrigel-coated 96-well plate. Then, the human endothelial progenitor cells are administered separately with reagent formulations of the control group 2, the comparison groups 2 to 3, and the embodiments 7 to 9 shown in Table 2, and incubated in an incubator at 37° C. for 8 hours.
After the culture time of 8 hours has elapsed, the human endothelial progenitor cells are fixed in glutaraldehyde/paraformaldehyde solution and treated with Calcein-AM solution so as to detect the fluorescent signals of different groups. The proteins of the human endothelial progenitor cells are extracted and analyzed by the Western blot analysis to confirm the expressions of factors related to the Akt/eNOS signaling pathway, the MAPK/ERK signaling pathway and the expression of gamma-glutamylcysteine synthetase (“γ-GCS” hereafter), wherein the γ-GCS participates in the synthesis of GSH. The GSH/GSSG ratios in the human endothelial progenitor cells are analyzed by using the liquid chromatography, the electrospray ionization, and the mass spectrometry. Each experiment is repeated 3 times.

[3] = test system: human endothelial progenitor cells; experiment: GSH/GSSG ratio in hEPCs by liquid chromatography, electrospray ionization, mass spectrometry; assay type: cell-based; conditions: SCF 20 ng/mL, trimethylamine-N-oxide 300 μM (comparison group 3) vs SCF alone (comparison group 2), p<0.05
Protocol: as §1
(§2) After the culture time of 8 hours has elapsed, the human endothelial progenitor cells are fixed in glutaraldehyde/paraformaldehyde solution and treated with Calcein-AM solution so as to detect the fluorescent signals of different groups. The proteins of the human endothelial progenitor cells are extracted and analyzed by the Western blot analysis to confirm the expressions of factors related to the Akt/eNOS signaling pathway, the MAPK/ERK signaling pathway and the expression of gamma-glutamylcysteine synthetase (“γ-GCS” hereafter), wherein the γ-GCS participates in the synthesis of GSH. The GSH/GSSG ratios in the human endothelial progenitor cells are analyzed by using the liquid chromatography, the electrospray ionization, and the mass spectrometry. Each experiment is repeated 3 times. […]

[4] = test system: Akt/eNOS signaling pathway and MAPK/ERK signaling pathway; experiment: Western blot of factors of the Akt/eNOS and MAPK/ERK signaling pathways in SCF-treated hEPCs; assay type: cell-based, human; conditions: SCF 20 ng/mL, trimethylamine-N-oxide 300 μM (comparison group 3) vs SCF alone (comparison group 2), 8 hours
Protocol: as §1, §2

Structure (SMILES)	inhibiting the expression of miR-221 [1] [%]	neovasculogenesis index [2]	expression of miR-221 ([1]; trimethylamine-N-oxide 300 μM alone (comparison group 1) vs control group 1, 24 hours)	GSH/GSSG ratio [3]	expressions of p-Akt, p-eNOS, and p-ERK1/2 [4]
CC/C=C\C/C=C\C/C=C\C/C=C\C/C=C\C/C=C\CCC(=O)O [DHA, docosahexaenoic acid]	85				
CC/C=C\C/C=C\C/C=C\C/C=C\C/C=C\CCCC(=O)O [EPA, eicosapentaenoic acid]	75				
C[N+](C)(C)[O-] [trimethylamine-N-oxide, Trimethylamine-N-oxide]		significantly lower	significantly higher	significantly lower	lower
